Assay [1] relates to Stop-POST5 complex (RFC-dependent termination). Kind of assay: smTIRF assay of RFC-dependent peptide and tRNA release. It counts as biochemical, shrimp (Artemia salina). How it is done: Immobilization of ribosome Stop-POST 5 complexes. PEGylated flow chambers were incubated in 0.5 mg/ml streptavidin for 5 mins and washed with Buffer 4. Biotinylated Stop-POST5 containing FK(atto647)VRQ-tRNA^Gln (Cy3) in the P-site, was formed at room temperature by incubating Stop-POST4, eEF1A, GTP, and Gln-(Cy3)tRNA^Gln for 5 mins and then injected into the streptavidin-coated slide chamber. After a 5 min incubation, excess unbound ribosome was flowed out. Then eRF1/eRF3±TRIDs was injected dynamically at 3 sec while recording. The injection dead time was subtracted for each particle.
Single-molecule fluorescence imaging. All sm-TIRF studies were carried out at 24° C. All dilutions, complex formation, and single-molecule imaging were carried out in Buffer 4 with an added enzymatic oxygen scavenging system of 2 mM protocatechuic acid (PCA), 50 nM protocatechunate 3,4 dioxygenase (PCD, Sigma Aldrich), 1 mM cyclooctatetraene (COT, Sigma Aldrich), 1 mM 4-nitrobenzyl alcohol (NBA, Sigma Aldrich), and 1.5 mM 6-hydroxy-2,5,7,8-tetramethyl-chromane-2-carboxylic acid (Trolox, Sigma-Aldrich) (Flis et al., Cell reports, 25(10), 2676-2688 (2018).
Image stacks were recorded at 100 ms frame rate on a custom-built objective-type total internal reflection fluorescence (TIRF) microscope based on a commercial inverted microscope (Eclipse Ti-E, Nikon) and capable of performing alternating-laser excitation (ALEX) between 532 nm and 640 nm laser beams using an acousto-optic tunable filter (AOTF, Chen et al., 2011). For the time-lapse experiment, timing of the movies, programmed into NIS-Elements (Nikon) microscope software, were recorded by illuminating the sample for 50-20 frames at 10 frames per s with 15 s or […] intervening dark intervals. Video recording was started and then eRF1/eRF3±TRIDs was injected from a triggered syringe pump at 3 sec while recording. The injection dead time was subtracted for each particle. Triggering of the shutters, AOTF, and pump was synchronized using LabView scripts driven from the camera exposure signal.
Data analysis. Collected movies were analyzed by a custom-made software program developed as an ImageJ plugin (Chen et al., Mol. Cell, 42, 367-377 (2011)), and further analyzed using Python. Distributions of peptide and tRNA dissociation times were fit to eq (5), using maximum likelihood estimation (Bevington and Robinson. Data Reduction and Error Analysis for the Physical Sciences. New York: McGraw-Hill, (2002); Woody et al., Biophys. J. 111, 273-282 (2016)), where P is the probability density.
smTIRF results using Atto(pep)-Cy-Stop-POST5 attached to surface-immobilized ribosomes. Although the distance between the two fluorophores is not close enough to produce FRET, fluorescent pairs could be identified by co-localization on the slide under alternating 532 nm and 640 nm total internal reflection fluorescence (TIRF) illumination. This permits near-simultaneous monitoring of the dynamics of peptide and P-site tRNA release from the Stop-POST5 complex following RFC binding.
To reduce photobleaching of each fluorophore, time-lapse movies were recorded with bursts of 20 or 50 frames at 100 ms frame intervals interleaved by 20 s intervals with the lasers shuttered. Total recording time for each trial was 20 min.
FIG. 8A and FIG. 8C show typical frame by frame recordings indicating a loss of signal for both labeled peptide and labeled tRNA after the addition of the RFC to Atto(pep)-Cy(tRNA)-Stop-POST5. Either peptide (a) or tRNA (b) can dissociate first, in approximately equal proportions. Photobleaching of Cy3-labeled tRNA and Atto647-labeled peptide in the absence of eRF1/eRF3 was much slower (FIG. 8E and FIG. 8F). Under the time lapse illumination employed, mean lifetimes for Atto647-peptide and Cy3-tRNA at 0.32 μM eRF1 and 2 μM eRF3 were each 2.45 min. […]

The next assay deals with T1, eRF3 (Saccharomyces cerevisiae, UniProt P05453).
T1 construct: amino acid residues (166-685) of the eRF3 open reading frame; made in house; host or cells: E. coli BL21(DE3) CodonPlus
T1 sequence (P05453 166-685): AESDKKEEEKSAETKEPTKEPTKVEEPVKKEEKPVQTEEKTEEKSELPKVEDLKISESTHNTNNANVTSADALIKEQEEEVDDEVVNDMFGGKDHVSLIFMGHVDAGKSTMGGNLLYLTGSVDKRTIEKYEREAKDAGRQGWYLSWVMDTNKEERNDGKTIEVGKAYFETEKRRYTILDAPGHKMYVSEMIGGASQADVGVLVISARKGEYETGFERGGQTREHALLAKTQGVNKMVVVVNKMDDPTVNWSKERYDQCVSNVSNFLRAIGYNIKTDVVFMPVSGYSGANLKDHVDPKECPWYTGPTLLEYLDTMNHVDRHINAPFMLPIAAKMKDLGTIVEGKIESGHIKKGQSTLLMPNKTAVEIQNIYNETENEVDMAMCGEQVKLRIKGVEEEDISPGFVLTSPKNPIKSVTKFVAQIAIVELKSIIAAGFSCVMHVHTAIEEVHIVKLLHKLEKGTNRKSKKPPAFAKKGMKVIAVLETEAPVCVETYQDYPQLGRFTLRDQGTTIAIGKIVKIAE
Kind of assay: [3H]-AzAt photoaffinity labeling of eRF3. Format: binding. As to conditions: near linear response to AzAt concentration. How it is done:
Photoaffinity labeling with [^3H]-AzAt. Samples in Buffer 4, typically 20 μL, were incubated in the dark (20 min for Stop-POST5 and 80S-IRES complexes, 2 min for release factors) with various concentrations of [^3H]-AzAt at 37° C., transferred to a UV-transparent cuvette which was covered with parafilm to prevent evaporation, and irradiated in a Rayonet photochemical reactor equipped with 300 nm UV lamps for 5 min at room temperature. This was followed by quenching with 2 mM DTT at 37° C. for 5 min under ambient light. The irradiation time gave complete photolysis of the phenyl azide moiety in AzAt. Photolysis was also complete at 5 min in the presence of 1 mM ataluren, ruling out internal filtering effects.
Photoaffinity labeling of release factors. Solutions containing eRF1 (10 μM), eRF3 (20 μM) and 1 mM GMPPMP were pre-incubated at 37° C. for 2 min to form the ternary complex prior to photolabeling with [^3H]-AzAt. After quenching, reaction mixtures were loaded onto a 4-15% mini protean SDS-PAGE gel for protein separation and isolation. Gel slices containing eRF1 or eRF3, as shown by Coomassie Blue R250 staining, were crushed and the radioactivity was extracted in extraction buffer (50 mM Tris-HCl, 150 mM NaCl, and 0.1 mM EDTA; pH 7.5) by vigorously shaking at 70° C. for 30 min. The data fitting was performed using the software Prism. […]

Setting [2] is: 0.081 μM RFC, 1000 μM ataluren added 4-25 s later, 24° C.

`O=C(O)c1cccc(-c2noc(-c3ccccc3F)n2)c1` [Ataluren]: the “mode of inhibition of RFC” value in assay [1] is recorded as “apparent competitive inhibitor”. Also, the “effect on CC value of peptide and tRNA lifetimes” value in assay [1] (0.032 μM RFC and 1 mM ataluren, FIG. 10C) was “did not change the CC value”. Also, in assay [1] (setting [2]), the “rate constant for elimination of ataluren's inhibitory effect after RFC addition, peptide” value was 9.6 ± 2.6 min⁻¹ and the “rate constant for elimination of ataluren's inhibitory effect after RFC addition, tRNA” value is 10.8 ± 3.6 min⁻¹. Moreover, the “effect on Vmax values at high RFC concentration” value in assay [1] (200, 500, 1000 μM ataluren) was “little affected”. In assay [1] (measured by both smTIRF and fluorescence anisotropy, eRF1 32 nM, FIG. 9H), the “KA, inhibition of pentapeptide release rate constants” value worked out at 250 ± 20 µM. For the same compound, in assay [1] (smTIRF), the “KA, inhibition of tRNA release” value amounted to 180 ± 10 µM. Moreover, the “effects on the rates of peptide and tRNA release” value in assay [1] (steps after tRNA-peptide bond cleavage) is “no direct effects”.
Take `[N-]=[N+]=Nc1ccc(-c2nc(-c3cccc(C(=O)O)c3)no2)cc1` [AzAt]: the “nature of photo-incorporation into eRF3” value on eRF3 is “nonspecific binding”.

For the origin of these results see US20230235374A1, “High Throughput Assays for Detecting Translation Readthrough Inducers” (The Trustees of the University of Pennsylvania, priority 2021, published 2023).
